The data set is described as follows: Surface tensiometer characterization: critical micelle concentration and surface tension. Particulars: surface tensiometer; FIG. 2. The data set is classed as physicochemical. The text has this:
Dibenzhydryl resorcinol ethoxylates produced in Example 2 were characterized using a surface tensiometer to determine critical micelle concentration and surface tension.

On to Dibenzhydryl Resorcinol Ethoxylate, for which the critical micelle concentration was determined as 4 ppm.

Values taken from US20220017444A1, “BENZ[…] SURFACTANTS” (INDORAMA VENTURES OXIDES LLC, priority 2018, published 2022).
